Test results taken from patent US20240124469A1, “PIM KINASE INHIBITOR” (Hangzhou Biosun Pharmaceutical Co., Ltd., priority 2021, published 2024).
Where two headings read alike, the source gives them in different places.

Tests used:
[1] = biological target: PIM1 (Homo sapiens (Human), UniProt P11309); test: PIM1 kinase activity test (Mobility shift assay); format: biochemical
Protocol: (§1) The efficacy of the compounds on the activity of PIM1/2/3 was tested by utilizing the Mobility shift assay method, with the specific procedures shown as follows: the test compounds were each dissolved in DMSO to be prepared into a 10 mM stock solution; for each of the test compounds, the stock solution was subjected to a 3-fold dilution from an initial concentration of 10 μM to obtain 10 concentrations.
(§2) PIM1, PIM2, and PIM3 (all three kinases are from Carna) were each prepared with 1× Kinase buffer into a kinase solution at a concentration that was 2.5 times the final concentration. 10 μL of kinase solution at a concentration that was 2.5 times the final concentration was added to each of the compound wells and the positive control well, and 10 μL of 1× Kinase buffer was added to the negative control well. The plate was centrifuged at 1000 rpm for 30 s, mixed well by shaking, and then incubated at room temperature for 10 min. A mixed solution of ATP and Kinase substrate 20 (from GL) at a concentration that was 25/15 times the final concentration was prepared with 1× Kinase buffer. The reaction was started by adding 15 μL of the mixed solution of ATP and Kinase substrate 20 at a concentration that was 25/15 times the final concentration. The 384-well plate was centrifuged at 1000 rpm for 30 s, mixed well by shaking, and then incubated at room temperature for 60 min. 30 μL of stop assay buffer was added to stop the kinase reaction. The plate was centrifuged at 1000 rpm for 30 s and mixed well by shaking. The conversion rates were read using Caliper EZ Reader.
(§3) The IC50 values of the test compounds for kinase activity were obtained by adopting a fitted dose-response curve of analytic software GraphPad Prism 5.

[2] = biological target: PIM2 (Homo sapiens (Human), UniProt Q9P1W9); test: PIM2 kinase activity test (Mobility shift assay); format: biochemical
Protocol: as §1, §2, §3

[3] = system: Ba/F3-EPOR-JAK2-V617F; test: Cell inhibitory activity test (72 h CTG); format: cell-based
Protocol: The EPOR-JAK2-V617F gene was transferred into Ba/F3 wild-type cells by a retrovirus packaging system to obtain a stably transfected cell line Ba/F3-EPOR-JAK2-V617F, which was used for the cell inhibitory activity ICso test of the compounds (reference: Blood. 2010; 115(15): 3109-3117). The specific procedures were as follows: • Cells were seeded in a 96-well plate, treated with the test compounds from DMSO stock solutions (final concentration of DMSO is 0.2%), and cultured at 37° C. with 5% CO2 for 72 h. Then, the cell proliferation inhibitory activity was assayed by the CTG (Cell-Titer Glo) method. For each of the test compounds, the stock solution was subjected to a 3-fold dilution from an initial concentration of 10 μM to obtain 9 concentrations. The dose-response relationship curve was fitted by using Graphpad 7.0 analysis software, and IC50 values were obtained.

[4] = Pharmacokinetic test; format: in vivo; settings: BALB/c mice; for AUC(0-t) / clearance / half-life / Vd / Cmax / Tmax: female, mouse, plasma; for half-life: read-out: Terminal t1/2 (converted); for Vd: read-out: Vss
Protocol: Experimental animals: BALB/c mice, female; weight: 19-25 g.
Preparation of test sample: the target compound was prepared into solutions at 0.4 mg/mL (for intravenous administration) and 5.0 mg/mL (for oral administration) for later use. Route of administration: oral administration/intravenous injection. Dosing volume and frequency: 5 mL/kg (intravenous injection) or 10 mL/kg (oral administration), single dose.
Sample collection: blood was collected at the following time points: 5 min, 15 min, 30 min, 1 hr, 2 hr, 4 hr, 8 hr, and 24 hr after the administration.
Sample analysis: the collected samples were detected by using an LC-MS/MS method. The model of the instrument used was AB Sciex 5500.
Pharmacokinetic data analysis: the resulting plasma concentration data were fitted and calculated according to a non-compartmental model.

[5] = biological target: PIM3 (Homo sapiens (Human), UniProt Q86V86); test: PIM3 kinase activity test (Mobility shift assay); format: biochemical
Protocol: as §1, §2, §3

Chain of PIM2 (Q9P1W9 whole entry): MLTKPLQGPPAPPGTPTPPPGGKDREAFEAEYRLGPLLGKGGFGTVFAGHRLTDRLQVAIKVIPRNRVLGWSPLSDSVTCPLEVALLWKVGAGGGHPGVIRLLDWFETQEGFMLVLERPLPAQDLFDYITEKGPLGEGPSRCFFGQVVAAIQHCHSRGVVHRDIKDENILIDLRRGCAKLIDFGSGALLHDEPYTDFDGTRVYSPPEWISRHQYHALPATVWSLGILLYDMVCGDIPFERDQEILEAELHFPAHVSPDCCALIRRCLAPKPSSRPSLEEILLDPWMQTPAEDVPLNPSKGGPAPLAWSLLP
Chain of PIM1 (P11309 whole entry): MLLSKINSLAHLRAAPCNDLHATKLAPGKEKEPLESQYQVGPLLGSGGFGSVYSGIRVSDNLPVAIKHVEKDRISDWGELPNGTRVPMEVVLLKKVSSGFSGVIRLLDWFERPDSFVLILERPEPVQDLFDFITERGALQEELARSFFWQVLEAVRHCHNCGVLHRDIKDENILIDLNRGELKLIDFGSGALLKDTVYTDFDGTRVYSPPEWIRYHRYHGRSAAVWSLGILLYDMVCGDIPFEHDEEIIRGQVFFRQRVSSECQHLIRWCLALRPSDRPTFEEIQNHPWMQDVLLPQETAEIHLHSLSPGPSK

Row | Compound | IC50 [1] [nM] | IC50 [2] [nM] | IC50 [3] [nM] | F ([4]; oral administration, 50 mg/kg) [%] | AUC(0-t) ([4]; intravenous injection, 2 mg/kg) [ng·h/mL] | clearance ([4]; intravenous injection, 2 mg/kg) [mL/min/kg] | half-life ([4]; intravenous injection, 2 mg/kg) [h] | Vd ([4]; intravenous injection, 2 mg/kg) [L/kg] | AUC(0-t) ([4]; oral administration, 50 mg/kg) [ng·h/mL] | Cmax ([4]; oral administration, 50 mg/kg) [ng/mL] | Tmax ([4]; oral administration, 50 mg/kg) [h] | half-life ([4]; oral administration, 50 mg/kg) [h] | IC50 [5] [nM]
1 | OC[C@@H]1CC[C@@H](Nc2ccc3ncc(-c4ccc(C(F)(F)F)s4)n3n2)CO1 [Compound 46, [(2S,5R)-5-[[3-[5-(trifluoromethyl)-2-thienyl]imidazo[1,2-b]pyridazin-6-yl]amino]tetrahydropyran-2-yl]methanol] | 2 to 10 | 1000 to 10000 | 100 to 150 | 89.9 | 523 | 65.8 | 0.26 | 1.47 | 11800 | 10600 | 0.5 | 0.91 | 100 to 1000
2 | CC(C)(O)[C@H]1CC[C@H](Nc2ccc3ncc(-c4ccc(C(F)(F)F)s4)n3n2)CC1 [Compound 20, 2-((1r,4r)-4-4-((3-(5-(trifluoromethyl)thiophen-2-yl)imidazo[1,2-b]pyridazin-6-yl)amino)cyclohexyl)propan-2-ol] | < 2 | 100 to 1000 | < 50 | 66.6 | 1090 | 31 | 1.06 | 1.85 | 18100 | 3980 | 1.33 | 3.5 | 10 to 100
3 | OC12CCC(Nc3ccc4ncc(-c5ccc(C(F)(F)F)s5)n4n3)(CC1)CC2 [Compound 29, 4-[[3-[5-(trefluoromethyl)-2-thienyl]imidazo[1,2-b]pyridazin-6-yl]amino]bicyclo [2.2.2] octan-1-ol] | < 2 | 10 to 100 | < 50 | 35.7 | 859 | 39.7 | 0.42 | 1.38 | 7650 | 6670 | 0.33 | 1.41 | 10 to 100
4 | CC(C)(O)[C@H]1CC[C@H](Nc2ccc3ncc(-c4cccc(C(F)(F)F)c4)n3n2)CC1 [TP-3654, reference compound] | 10 to 100 | 100 to 1000 | > 150 | 42.3 | 652 | 51.8 | 1.24 | 5.58 | 6800 | 2550 | 1 | 1.33 | 100 to 1000
